Structures can show the parent of a compound that is named as a salt. Where two headings read alike, the source gives them in different places.
What was measured:
[1] = target: T1, human arginase I (ARG I) (Homo sapiens, UniProt P05089); assay: Inhibition of arginase I, spectrophotometric urea assay at 530 nm; type: biochemical; details: read-out: Potency (ARG I)
T1 sequence (P05089 1-322): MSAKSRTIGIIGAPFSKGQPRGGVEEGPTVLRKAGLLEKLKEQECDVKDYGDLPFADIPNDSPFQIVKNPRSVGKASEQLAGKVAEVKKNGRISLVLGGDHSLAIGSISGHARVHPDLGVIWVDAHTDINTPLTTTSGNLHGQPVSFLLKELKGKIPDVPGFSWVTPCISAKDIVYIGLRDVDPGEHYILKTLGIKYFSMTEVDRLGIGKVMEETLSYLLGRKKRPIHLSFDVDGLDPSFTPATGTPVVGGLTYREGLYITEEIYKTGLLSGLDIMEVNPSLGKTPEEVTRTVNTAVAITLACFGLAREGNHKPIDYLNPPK
Description: (§1) The assay established the concentration of inhibitor that is required to reduce arginase activity by 50% (IC50).
(§2) Inhibition of arginase I (ARG I) and arginase II (ARG II) by Formula I and Formula II compounds is followed spectrophotometrically at 530 nm. The compound to be tested is dissolved in DMSO at an initial concentration 50-fold greater than its final concentration in the cuvette. 10 μl of the stock solution is diluted in 90 μl of the assay buffer that comprises 0.1M sodium phosphate buffer containing 130 mM NaCl, pH 7.4, to which is added ovalbumin (OVA) at a concentration of 1 mg/ml. Solutions of arginase I and II are prepared in 100 mM sodium phosphate buffer, pH 7.4 containing 1 mg/ml of OVA to give an arginase stock solution at a final concentration of 100 ng/ml.
(§3) To each well of a 96-well microtiter plate is add 40 μl of enzyme, 10 μl of an inventive compound and 10 μl of enzyme substrate (L-arginine+manganese sulfate). For wells that are used as positive controls, only the enzyme and its substrate are added, while wells used as negative controls contain only manganese sulfate.
(§4) After incubating the microtiter plate at 37° C. for 60 minutes, 150 μl of a urea reagent obtained by combining equal proportions (1:1) of reagents A and B is added to each well of the microtiter plate to stop the reaction. The urea reagent is made just before use by combining Reagent A (10 mM o-phthaldialdehyde, and 0.4% polyoxyethylene (23) lauryl ether (w/v) in 1.8 M sulfuric acid) with Reagent B (1.3 mM primaquine diphosphate, 0.4% polyoxyethylene (23) lauryl ether (w/v), 130 mM boric acid in 3.6 M sulfuric acid). After quenching the reaction mixture, the microtiter plate is allowed to stand for an additional 10 minutes at room temperature to allow color development. The inhibition of arginase is computed by measuring the optical density (OD) of the reaction mixture at 530 nm and normalizing the OD value to percent inhibition observed in the control. The normalized OD is then used to generate a dose-response curve by plotting the normalized OD values against log [concentration] and using regression analysis to compute the IC50 values.

[2] = target: T2, arginase II (ARG II) (Homo sapiens, UniProt P78540); assay: Inhibition of arginase II, spectrophotometric urea assay at 530 nm; type: biochemical
T2 sequence (P78540 23-354): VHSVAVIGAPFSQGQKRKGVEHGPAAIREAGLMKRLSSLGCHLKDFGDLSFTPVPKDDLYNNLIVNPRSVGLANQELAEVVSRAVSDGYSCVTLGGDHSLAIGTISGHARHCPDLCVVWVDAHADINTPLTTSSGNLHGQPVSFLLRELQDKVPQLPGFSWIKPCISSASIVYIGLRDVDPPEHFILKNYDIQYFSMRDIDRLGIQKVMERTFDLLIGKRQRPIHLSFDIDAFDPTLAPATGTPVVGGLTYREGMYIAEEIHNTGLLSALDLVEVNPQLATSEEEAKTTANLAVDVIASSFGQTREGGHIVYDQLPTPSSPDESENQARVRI
Description: as §1, §2, §3, §4

[3] = Formula II compounds, Table 2-A
[4] = Formula II compounds, Table 2-A, read-out: Potency (ARG)
[5] = Formula I compounds, Table 2, read-out: Potency (ARG II)

SMILES	IC50 [1, 3] [nM]	IC50 [2, 4] [nM]	IC50 ([1]; Formula I compounds, Table 2) [nM]	IC50 [2, 5] [nM]
NC(CCCCB(O)O)(C(=O)O)C1CCN(c2ccc(Cl)cn2)CC1 (centres unmarked) [Example 85-A, 2-amino-6-borono-2-(1-(5-chloropyridin-2-yl)piperidin-4-yl)hexanoic acid hydrochloride]	1000 to 2000	251 to 1000	–	–
NC(CCCCB(O)O)(C(=O)O)C1CCN(c2cc(C(F)(F)F)nc3ccccc23)CC1 (centres unmarked) [3-A, 2-amino-6-borono-2-[(2-Trifluoromethyl-quinolin-4-yl)-piperidin-4-yl)-hexanoic acid hydrochloride]	1000 to 2000	1000 to 2000	–	–
CN(C)C(=O)[C@@H]1CCCN1CCC(N)(CCCCB(O)O)C(=O)O (stereo partly drawn) [compound 54, 2-amino-6-borono-2-(2-((S)-2-(dimethylcarbamoyl)pyrrolidin-1-yl)ethyl)hexanoic acid dihydrochloride]	–	–	> 5000	> 5000
NC(CCCCB(O)O)(CCC1Cc2ccccc2CN1Cc1ccc(Cl)cc1)C(=O)O (centres unmarked) [compound 132, 2-amino-6-borono-2-(2-(2-(4-chlorobenzyl)-1,2,3,4-tetrahydroisoquinolin-3-yl)ethyl)hexanoic acid dihydrochloride]	–	–	0.1 to 250	251 to 1000
COc1ccc(CCN(C)CC[C@](N)(CCCCB(O)O)C(=O)O)cc1OC [compound 6, (R)-2-amino-6-borono-2-(2-((3,4-dimethoxyphenethyl)(methyl)amino)ethyl)hexanoic acid dihydrochloride]	–	–	251 to 1000	1000 to 2000
NC(CCCCB(O)O)(C(=O)O)C1CCN(Cc2ccc3c(c2)OCO3)CC1 (centres unmarked) [Example 90-A, 2-amino-2-(1-(benzo[d][1,3]dioxol-5-ylmethyl)piperidin-4-yl)-6-boronohexanoic acid dihydrochloride]	0.1 to 250	0.1 to 250	–	–
CN1CCN(CC(N)(CCCCB(O)O)C(=O)O)CC1 (centres unmarked) [compound 80, 2-amino-6-borono-2-((4-methylpiperazin-1-yl)methyl) hexanoic acid trihydrochloride]	–	–	2000 to 5000	> 5000
NC(CCCCB(O)O)(CCOc1ccc(Cl)cc1Cl)C(=O)O (centres unmarked) [compound 94, 2-Amino-6-borono-2-[2-(2,4-dichlorophenoxy)-ethyl]-hexanoic acid hydrochloride]	–	–	> 5000	> 5000
NC(CCCCB(O)O)(C(=O)O)C1CCN(CCCc2ccc(Cl)cc2Cl)CC1 (centres unmarked) [Example 66-A, 2-amino-6-borono-2-(1-(3-(2,4-dichlorophenyl)propyl)piperidin-4-yl)hexanoic acid dihydrochloride]	0.1 to 250	0.1 to 250	–	–
NC(CCCCB(O)O)(CCN1CCC[C@H]1CN1CCCC1)C(=O)O (stereo partly drawn) [compound 40, 2-amino-6-borono-2-(2-((S)-2-(pyrrolidin-1-ylmethyl)pyrrolidin-1-yl)ethyl)hexanoic acid trihydrochloride]	–	–	1000 to 2000	2000 to 5000
NC(CCCCB(O)O)(C(=O)O)C1CCN(C2CCCCC2)CC1 (centres unmarked) [23-A, 2-amino-6-borono-2-(1-cyclohexylpiperidin-4-yl)hexanoic acid dihydrochloride]	251 to 1000	251 to 1000	–	–
CC(CC(N)(CCCCB(O)O)C(=O)O)N1CCC(Cc2ccccc2)CC1 (centres unmarked) [compound 124, 2-amino-2-(2-(4-benzylpiperidin-1-yl)propyl)-6-boronohexanoic acid dihydrochloride]	–	–	251 to 1000	2000 to 5000
CC(C)CCN1Cc2ccccc2CC1CCC(N)(CCCCB(O)O)C(=O)O (centres unmarked) [compound 133, 2-amino-6-borono-2-(2-(2-isopentyl-1,2,3,4-tetrahydroisoquinolin-3-yl)ethyl)hexanoic acid dihydrochloride]	–	–	0.1 to 250	0.1 to 250
NC(CCCCB(O)O)(C(=O)O)C1CCN(c2nc3ccc(Cl)cc3o2)CC1 (centres unmarked) [4-A, 2-amino-6-borono-2-[(6-chlorobenzoxazol-2-yl)-piperidin-4-yl)-hexanoic acid hydrochloride]	251 to 1000	1000 to 2000	–	–
CC(=O)N1CCC(C(N)(CCCCB(O)O)C(=O)O)CC1 (centres unmarked) [27-A, 2-amino-6-borono-2-[1-acetylpiperidin-4-yl]hexanoic acid hydrochloride]	2000 to 5000	2000 to 5000	–	–
NC(CCCCB(O)O)(C(=O)O)C1CCN(Cc2ccc(F)cc2)CC1 (centres unmarked) [Example 94-A, 2-amino-6-borono-2-(1-(4-fluorobenzyl)piperidin-4-yl)hexanoic acid dihydrochloride]	0.1 to 250	251 to 1000	–	–
C[C@H](CO)NCCC(N)(CCCCB(O)O)C(=O)O (some centres unmarked) [compound 91]	–	–	2000 to 5000	2000 to 5000
NC(CCCCB(O)O)(CCNCCCc1ccc(F)c(F)c1)C(=O)O (centres unmarked) [compound 63, 2-amino-6-borono-2-(2-(3-(3,4-difluorophenyl)propylamino)ethyl)hexanoic acid dihydrochloride]	–	–	0.1 to 250	0.1 to 250
NC(CCCCB(O)O)(CCNC1Cc2ccccc2C1)C(=O)O (centres unmarked) [compound 58, 2-amino-6-borono-2-(2-(2,3-dihydro-1H-inden-2-ylamino)ethyl)hexanoic acid dihydrochloride]	–	–	0.1 to 250	0.1 to 250
NC(CCCCB(O)O)(CC1CN(Cc2ccc(Cl)c(Cl)c2)C1)C(=O)O (centres unmarked) [compound 117, 2-amino-6-borono-2-((1-(3,4-dichlorobenzyl)azetidin-3-yl)methyl)hexanoic acid dihydrochloride]	–	–	251 to 1000	2000 to 5000
NC(CCCCB(O)O)(C(=O)O)C(O)c1cccnc1 (centres unmarked) [compound 112, 2-amino-6-borono-2-(hydroxy(pyridin-3-yl)methyl)hexanoic acid dihydrochloride]	–	–	2000 to 5000	2000 to 5000
NC(CCCCB(O)O)(C(=O)O)C1CCN(Cc2ccccc2-c2ccccc2)CC1 (centres unmarked) [Example 55-A, 2-amino-2-(1-(biphenyl-2-ylmethyl)piperidin-4-yl)-6-boronohexanoic acid dihydrochloride]	0.1 to 250	0.1 to 250	–	–
NC(CCCCB(O)O)(CCN1CC(O)C1)C(=O)O (centres unmarked) [compound 59, 2-amino-6-borono-2-(2-(3-hydroxyazetidin-1-yl)ethyl)hexanoic acid dihydrochloride]	–	–	1000 to 2000	2000 to 5000
COc1ccc(CNCCC(N)(CCCCB(O)O)C(=O)O)cc1 (centres unmarked) [compound 69, 2-amino-6-borono-2-(2-(4-methoxybenzylamino)ethyl)hexanoic acid dihydrochloride]	–	–	0.1 to 250	0.1 to 250
N[C@@H]1CC[C@H]([C@](N)(CCCCB(O)O)C(=O)O)C1 [15-A, (R)-2-amino-2-((1S,3R)-3-aminocyclopentyl)-6-boronohexanoic acid dihydrochloride]	0.1 to 250	0.1 to 250	–	–
NC(CCCCB(O)O)(CCN1CCCCC1C(=O)O)C(=O)O (centres unmarked) [compound 52, 1-(3-amino-7-borono-3-carboxyheptyl)piperidine-2-carboxylic acid dihydrochloride]	–	–	2000 to 5000	2000 to 5000
COc1cccc(CCCNCCC(N)(CCCCB(O)O)C(=O)O)c1 (centres unmarked) [compound 65, 2-amino-6-borono-2-(2-(3-(3-methoxyphenyl)propylamino)ethyl)hexanoic acid dihydrochloride]	–	–	0.1 to 250	0.1 to 250
NC(CCCCB(O)O)(C(=O)O)C1CCN(Cc2ccc(Oc3ccc(Cl)c(Cl)c3)cc2)CC1 (centres unmarked) [Example 64-A, 2-amino-6-borono-2-(1-(4-(3,4-dichlorophenoxy)benzyl)piperidin-4-yl)hexanoic acid dihydrochloride]	0.1 to 250	0.1 to 250	–	–

Reference: US9994594B2, “Inhibitors of arginase and their therapeutic applications” (MARS, INCORPORATED, priority 2010, dated 2018)
